Results reported in PubChem BioAssay (NCI).
Several values for one entry are separate records, joined by “and”; a condition that tells them apart may be missing. Identical values can stand only once.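 Where inhibition never reached the appropriate level, the endpoint shown equals the highest concentration tested. Otherwise, values were interpolated linearly from a five-concentration, 48-hour dose response in 96-well plates. Abbreviation: GI50, concentration required for 50% inhibition of growth. TGI: total growth inhibition.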

What was measured:
Assay in all cases: NCI tumour cell line growth inhibition, 48 h
ACHN renal = test system: ACHN renal
CAKI-1 renal = test system: CAKI-1 renal
COLO 205 colon = test system: COLO 205 colon
DU-145 prostate = test system: DU-145 prostate
HCT-15 colon = test system: HCT-15 colon
IGROV1 ovarian = test system: IGROV1 ovarian
NCI-H522 lung = test system: NCI-H522 lung
SF-295 CNS = test system: SF-295 CNS
U251 CNS = test system: U251 CNS
SNB-75 CNS = test system: SNB-75 CNS

SMILES | GI50 (ACHN renal) | TGI (ACHN renal) | GI50 (CAKI-1 renal) | TGI (CAKI-1 renal) | GI50 (COLO 205 colon) | TGI (COLO 205 colon) | GI50 (DU-145 prostate) | TGI (DU-145 prostate) | GI50 (HCT-15 colon) | TGI (HCT-15 colon) | GI50 (IGROV1 ovarian) | TGI (IGROV1 ovarian) | GI50 (NCI-H522 lung) | TGI (NCI-H522 lung) | GI50 (SF-295 CNS) | TGI (SF-295 CNS) | GI50 (U251 CNS) | TGI (U251 CNS) | TGI (SNB-75 CNS) | GI50 (SNB-75 CNS)
O=C(Nc1cc(Cl)cc(Cl)c1)c1cccc(NC2=C(Cl)C(=O)N(Cc3ccccc3)C2=O)c1 | 31.9 µM | > 100 µM | 30.3 µM | > 100 µM | 31.5 µM | > 100 µM | 32.1 µM | > 100 µM | 24 µM | > 100 µM | 41.1 µM | > 100 µM | 28.5 µM | > 100 µM | 34.2 µM | > 100 µM | 15.6 µM | > 100 µM | – | –
COc1cc(/C=C(\NC(=O)c2ccccc2)c2nc3ncncc3[nH]2)cc(OC)c1OC | – | > 100 µM | – | > 100 µM | – | > 100 µM | – | – | – | > 100 µM | – | > 100 µM | – | > 100 µM | – | > 100 µM | – | > 100 µM | – | –
NS(=O)(=O)c1ccc(NC(=O)C2C(=O)C(=O)N(c3ccc(S(N)(=O)=O)cc3)C2=O)cc1 (configuration not stated) | – | > 100 µM | – | > 100 µM | – | > 100 µM | – | – | – | > 100 µM | – | > 100 µM | – | > 100 µM | – | > 100 µM | – | > 100 µM | > 100 µM | –
CC(C)COC1Sc2ccccc2S1 | – | 30 µM | – | 52.4 µM | – | 89.2 µM | – | – | – | 66 µM | – | 32.3 µM | – | – | – | 31.3 µM | – | 35.9 µM | 6.36 µM | –
O=C(Nc1ccc(Cl)cc1C(=O)O)c1ccc([N+](=O)[O-])cc1 | – | 49.6 µM | – | – | – | 39.4 µM | – | – | – | 46.3 µM | – | 45.5 µM | – | – | – | 51.1 µM | – | 51.1 µM | > 100 µM | –
CCCCNC(=S)OCCC(C)CCCC(C)C (configuration not stated) | – | > 100 µM | – | > 100 µM | – | – | – | – | – | > 100 µM | – | > 100 µM | – | – | – | > 100 µM | – | > 100 µM | > 100 µM | –
N#CC1(C#N)C=CC(=C2OCC3CCCN23)C=C1 (configuration not stated) | – | > 100 µM | – | > 100 µM | – | > 100 µM | – | – | – | > 100 µM | – | > 100 µM | – | > 100 µM | – | > 100 µM | – | > 100 µM | > 100 µM | –
CCN1C(=O)N(CC)C2C1NN=c1s/c(=C3\C(=O)N(C4CCCC4)c4ccccc43)c(=O)n12 (configuration not stated) | 1.27 µM | > 100 µM | 0.519 µM | > 100 µM | 1.89 µM | 12.2 µM | 2.25 µM | 6.59 µM | 0.479 µM | > 100 µM | 0.773 µM | > 100 µM | 0.573 µM | 5.57 µM | 1.6 µM | 14.4 µM | 1.57 µM | 15.6 µM | – | –
CCCCCCCCCCCCN=C(N)c1ccc(N2CCN(c3ccc(C(N)=NCCCCCCCCCCCC)cc3)CC2)cc1 | 20.7 µM | > 50 µM | 32.3 µM | > 50 µM | 11.6 µM | 24.4 µM | 3.57 µM | 14.3 µM | 35 µM | > 50 µM | – | – | 3.42 µM | 31.2 µM | 7.66 µM | 18.1 µM | 11.3 µM | 24.9 µM | – | –
O=C1C=C2CCCC2C(C(=O)O)(C(=O)O)C1 (configuration not stated) | – | – | – | > 100 µM | – | > 100 µM | – | – | – | > 100 µM | – | > 100 µM | – | > 100 µM | – | > 100 µM | – | > 100 µM | > 100 µM | –
CC1=CP(=O)(c2ccccc2)C=C(C)C1=C(Cl)Cl (configuration not stated) | – | – | – | – | – | 16.4 µM | – | – | – | – | – | 34.1 µM | – | 7.23 µM | – | 34.6 µM | – | 19.8 µM | > 100 µM | –
O=C(CC1C(=O)Nc2ccccc2S1(=O)=O)Nc1ccc(Cl)cc1 (configuration not stated) | – | 71.9 µM | – | 43.5 µM | – | – | – | – | – | > 100 µM | – | 37.7 µM | – | 36.4 µM | – | > 100 µM | – | 34 µM | 37.6 µM | –
O=C(Nc1ccccc1)OC1OC(COC(=O)c2ccccc2)C(OC(=O)c2ccccc2)C1OS(=O)(=O)c1ccc([N+](=O)[O-])cc1 (configuration not stated) | – | > 100 µM | – | > 100 µM | – | > 100 µM | – | > 100 µM | – | > 100 µM | – | > 100 µM | – | > 100 µM | – | > 100 µM | – | > 100 µM | – | –
COc1ccc(O)cc1C(O)c1ccccc1 (configuration not stated) | – | > 100 µM | – | > 100 µM | – | > 100 µM | – | – | – | > 100 µM | – | > 100 µM | – | > 100 µM | – | > 100 µM | – | > 100 µM | > 100 µM | –
CCCCCCCCCCCCCCCC(=O)OCCOCCOCCOCCOCCOC(=O)CCCCCCCCCCCCCCC | – | > 100 µM | – | > 100 µM | – | > 100 µM | – | – | – | > 100 µM | – | > 100 µM | – | > 100 µM | – | > 100 µM | – | > 100 µM | – | –
Nc1nc2c(-c3ccc([N+](=O)[O-])cc3)nnn2c2ccccc12 | – | > 100 µM | – | > 100 µM | – | > 100 µM | – | – | – | > 100 µM | – | > 100 µM | – | – | – | > 100 µM | – | 66.4 µM | – | –
C[N+](C)(C)c1cc[c]([Sn]([c]2ccc([N+](C)(C)C)cc2)([c]2ccc([N+](C)(C)C)cc2)[c]2ccc([N+](C)(C)C)cc2)cc1 | > 100 µM | > 100 µM | – | – | > 100 µM | > 100 µM | – | – | > 100 µM | > 100 µM | > 100 µM | > 100 µM | > 100 µM | > 100 µM | > 100 µM | > 100 µM | > 100 µM | > 100 µM | > 100 µM | > 100 µM
CCc1cc2c(O)c(c1)Cc1cc(CC)cc(c1O)Cc1cc(CC)cc(c1O)Cc1cc(CC)cc(c1O)Cc1cc(CC)cc(c1O)Cc1cc(CC)cc(c1O)Cc1cc(CC)cc(c1O)C2 | – | > 100 µM | – | – | – | > 100 µM | – | – | – | > 100 µM | – | > 100 µM | – | > 100 µM | – | > 100 µM | – | > 100 µM | 61.4 µM | –
CC1C=CC(C(N)C(=O)O)O1 (configuration not stated) | – | > 100 µM | – | > 100 µM | – | > 100 µM | – | – | – | > 100 µM | – | > 100 µM | – | > 100 µM | – | > 100 µM | – | > 100 µM | > 100 µM | –
O=C1C=C(OCC=C(C(F)(F)F)C(F)(F)F)c2ccccc2C1=O | 1.85 µM | 4.01 µM | 3.15 µM | 10.4 µM | 2.11 µM | 4.73 µM | 1.75 µM | 3.17 µM | 2.06 µM | 5.7 µM | – | – | 1.41 µM | 2.92 µM | 14.6 µM | 30.3 µM | 1.84 µM | 3.83 µM | – | –
c1ccc2c(c1)Cc1c(Cc3csc4ccccc34)ccc3cccc-2c13 | – | > 100 µM | – | – | – | > 100 µM | – | – | – | > 100 µM | – | > 100 µM | – | > 100 µM | – | > 100 µM | – | > 100 µM | > 100 µM | –
COc1ccc(/C=C/C(=O)c2c(-c3ccccc3)nn(C)c(=O)c2N2CCOCC2)cc1 | – | > 100 µM | – | > 100 µM | – | > 100 µM | – | – | – | > 100 µM | – | > 100 µM | – | > 100 µM | – | > 100 µM | – | > 100 µM | – | –
CCOC(=N)CC(=O)Nc1ccccc1 | – | > 46.4 µM | – | > 100 µM | – | > 46.4 µM | – | – | – | > 46.4 µM | – | > 46.4 µM | – | > 100 µM | – | > 100 µM | – | > 100 µM | > 46.4 µM | –
C#CC1(O)C(COP(=O)(O)OCC2OC(n3cc(F)c(=O)[nH]c3=O)CC2O)OC(n2ccc(N)nc2=O)C1O (configuration not stated) | 0.0469 µM | > 100 µM | < 0.01 µM | – | < 0.01 µM | 0.96 µM | < 0.01 µM | > 100 µM | < 0.0166 µM | > 100 µM | 0.0398 µM | > 100 µM | < 0.01 µM | > 100 µM | < 0.01 µM | 4.26 µM | < 0.0273 µM | > 100 µM | – | –
N#C/C(=C1\OC(=N)C(c2ccccc2)C1=O)c1ccccc1 (configuration not stated) | – | 31.8 µM | – | > 96.6 µM | – | 44.2 µM | – | – | – | 60.2 µM | – | > 80.7 µM | – | 22.2 µM | – | > 100 µM | – | > 100 µM | > 85.7 µM | –
C/C=C/C(=O)[O-].C/C=C/C(=O)[O-].N.N.N.N.[Co+3].[O-][Cl+3]([O-])([O-])[O-] | > 100 µM | > 100 µM | – | – | > 100 µM | > 100 µM | – | – | > 100 µM | > 100 µM | > 100 µM | > 100 µM | 83.9 µM | > 100 µM | > 100 µM | > 100 µM | > 100 µM | > 100 µM | > 100 µM | 47.4 µM
Cc1ccc(N=C2N=C(N3CC(C)OC(C)C3)c3ccccc32)cc1 (configuration not stated) | – | > 100 µM | – | 51 µM | – | > 100 µM | – | – | – | > 100 µM | – | 88.8 µM | – | – | – | > 100 µM | – | > 100 µM | 88.5 µM | –
O=C(N=c1nc(NC(=O)c2ccccc2)ss1)c1ccccc1 | – | 31.6 µM | – | 75.8 µM | – | 47.3 µM | – | – | – | > 100 µM | – | > 100 µM | – | 42.4 µM | – | 70.6 µM | – | 37.1 µM | > 100 µM | –
COc1ccc2c(c1)/C(=C\c1c(-c3cc(OC)ccc3OC)nc3sccn13)C(=O)N2 | 2.37 µM | 9.74 µM | 3.82 µM | 13.8 µM | 1.51 µM | 2.84 µM | – | – | 7.19 µM and 5.37 µM | 18.7 µM | 0.697 µM | 2.73 µM | – | – | 5.31 µM and 18.2 µM | 44.1 µM | 9.76 µM | 24.5 µM | – | –
